According to patent US20230139543A1, “COMPOUNDS FOR USE IN A METHOD OF TREATING, PREVENTING AND/OR REDUCING THE SYMPTOMS OF PAIN” (The Beckley Foundation, priority 2020, published 2023):
Entries after “also recorded” stand apart in the source; their conditions may differ.

What was measured:
healthy participants [1] = assay: Cold Pressor Test (CPT), placebo-controlled trial; assay type: in vivo, human; settings: single oral dose 20 μg LSD vs placebo, 1.5 and 5 hours post treatment
Method: (§1) Twenty-four healthy participants (12 male, 12 female) participated in a randomized, double-blind, placebo-controlled, within-subject study in which they received single oral doses of 20 μg LSD (hydrate) and placebo on 4 separate test days. A minimum washout of 5 days proceeded in between to avoid carry-over effects. Treatment orders were randomly assigned to participants according to a balanced block design. LSD was formulated as a solution of 25 μg LSD base in 1 ml 96% ethanol according to GMP and administered orally. LSD doses (0.8 ml for 20 μg LSD) were supplemented with an ethanol solution up to a total volume 1 ml and administered with a syringe under the tongue. Placebo consisted of a 1 ml ethanol solution only. Treatments were administered at 10 AM.
(§2) At 1.5 and 5 hours post treatment, participants conducted a Cold Pressor Test (further described below). The Brief Symptom Inventory and the Clinician Administered Dissociation State Scale (CADSS) were administered prior to treatment administration (baseline) and at the end of a test day, i.e. at 6 hours post dosing. Vital signs were recorded at baseline, every 30 minutes during the first three hours after dosing, and at every hour thereafter. Blood samples were collected at every hour. Participants resided in a secluded room that contained a bed, table and chairs. Standardized lunches were provided around 12 AM.
The CPT was used to induce a painful sensation according to previously validated procedure (Smeets et al. Psychoneuroend. 2012, 37, 1998-2008). The CPT is the most commonly used test to induce conditioned pain modulation and to evaluate analgesic properties such as pain tolerance in healthy subjects (see, for instance, Okkerse et al. Br J Clin Pharmacol. 2017, 83(5), 976-990; Oaks et al. Discov Med. 2018, 26(144), 197-206). […]
A water tank was filled with water that was cooled to 3° C. […] Dependent measures of the CPT included pain tolerance (sec) and subjective ratings of painfulness, unpleasantness and stress as assessed 10 cm visual analogue scales. Water temperature at onset and completion of the CPT were assessed as control measure.
(§3) Analyses were carried out by means of the SPSS 25 program series to investigate whether the effects of LSD doses differed from those of placebo. CPT parameters and baseline adjusted parameters of vital signs were analysed using a three factor ANOVA to assess main effects of Treatment, Time after treatment and Participant as well as the interaction Treatment×Time after treatment. […]

[2] = Pharmacokinetics: LSD plasma levels by UHPLC-MS/MS; assay type: in vivo; settings: both sexes, human, single oral dose 20 μg LSD, read-out: mean (SD) plasma LSD concentration
Method: as §1
At 1.5 and 5 hours post treatment, participants conducted a Cold Pressor Test (further described below). […] Vital signs were recorded at baseline, every 30 minutes during the first three hours after dosing, and at every hour thereafter. […]
Blood samples were centrifuged, and plasma was frozen at −20° C. until analysis for pharmacokinetic assessments. LSD plasma levels were analysed by ultra-high-performance liquid chromatography tandem mass spectrometry (UHPLC-MS/MS) as previously described previously. PK Samples with a LSD concentration below […] were re-analysed by a different extraction procedure. […]

healthy participants [3] = assay: Vital signs (heart rate, blood pressure); assay type: in vivo, human; settings: single oral dose 20 μg LSD vs placebo; data not shown
Method: as §1, §2
Heart rate (bpm) and blood pressure (mmHg) were repeatedly assessed using an Omron M6 (HEM-7321-E, Omron Healthcare Europe By) device.
as §3, with “treatment. Mean contrast (LSD dose versus placebo) tests were conducted for measuring the significance of individual dose effects, relative to placebo.” for “treatment.”

With `CCN(CC)C(=O)[C@@H]1C=C2c3cccc4[nH]cc(c34)C[C@H]2N(C)C1` [LSD, (D)-lysergic acid diethylamide] the “stress during the CPT (10 cm visual analogue scale)” value (healthy participants [1]) was “did not lead to a significant change; also recorded: not affected”, the “pain tolerance during the CPT” value (healthy participants [1]; p=0.006) was “significant increase; also recorded: significantly increased” and the “unpleasantness during the CPT (10 cm visual analogue scale)” value (healthy participants [1]; p=0.008) was “significant decrease; also recorded: decreased”. The “painfulness during the CPT (10 cm visual analogue scale)” value (healthy participants [1]; p=0.012) was “significant decrease; also recorded: decreased”, the concentration at 1.5 h ([2]; 1.5 hours after administration) was 0.482 ng/mL and the concentration at 6 h ([2]; 6 hours post treatment) was 0.223 ng/mL. For the same molecule, the diastolic blood pressure (healthy participants [3]) was “slightly increased”, the heart rate (healthy participants [3]) was “not affected” and the systolic blood pressure (healthy participants [3]) was “slightly increased”.
